Data taken from patent US12331063B2, “Hetero-bicyclic inhibitors of KRAS” (Incyte Corporation, priority 2021, dated 2025).

molecular target: KRAS G12D (Homo sapiens, UniProt P01116, G12D); assay: GDP-GTP exchange assay (bodipy-GDP/GppNHp, SOS1), KRAS G12D; type: biochemical; settings: bodipy-loaded KRAS G12D 2.5 nM, 4 hours incubation after adding GppNHp-SOS1 mixture
Experimental: The inhibitor potency of the exemplified compounds was determined in a fluorescence based guanine nucleotide exchange assay, which measures the exchange of bodipy-GDP (fluorescently labeled GDP) for GppNHp (Non-hydrolyzable GTP analog) to generate the active state of KRAS in the presence of SOS1 (guanine nucleotide exchange factor). Inhibitors were serially diluted in DMSO and a volume of 0.1 μL was transferred to the wells of a black low volume 384-well plate. 5 μL/well volume of bodipy-loaded KRAS G12C diluted to 5 nM in assay buffer (25 mM Hepes pH 7.5, 50 mM NaCl, 10 mM MgCl2 and 0.01% Brij-35) was added to the plate and pre-incubated with inhibitor for 2 hours at ambient temperature. Appropriate controls (enzyme with no inhibitor or with a G12C inhibitor (AMG-510)) were included on the plate. The exchange was initiated by the addition of a 5 μL/well volume containing 1 mM GppNHp and 300 nM SOS1 in assay buffer. The 10 μL/well reaction concentration of the bodipy-loaded KRAS G12C, GppNHp, and SOS1 were 2.5 nM, 500 uM, and 150 nM, respectively. The reaction plates were incubated at ambient temperature for 2 hours, a time estimated for complete GDP-GTP exchange in the absence of inhibitor. For the KRAS G12D and G12V mutants, similar guanine nucleotide exchange assays were used with 2.5 nM as final concentration for the bodipy loaded KRAS proteins and with 4 hours and 3 hours incubation after adding GppNHp-SOS1 mixture for G12D and G12V respectively. A cyclic peptide described to selectively bind G12D mutant (Sakamoto et al., BBRC 484.3 (2017), 605-611) or internal compounds with confirmed binding were used as positive controls in the assay plates. Fluorescence intensities were measured on a PheraStar plate reader instrument (BMG Labtech) with excitation at 485 nm and emission at 520 nm.
Either GraphPad prism or XLfit was used to analyze the data. The IC50 values were derived by fitting the data to a four parameter logistic equation producing a sigmoidal dose-response curve with a variable Hill coefficient. Prism equation: Y=Bottom+(Top−Bottom)/(1+10^((Log IC50−X)*Hill slope)); XLfit equation: Y=(A+((B−A)/(1+((X/C)^D)))) where X is the logarithm of inhibitor concentration and Y is the response.
The symbol “†” indicates IC50≤100 nM, “††” indicates IC50>100 nM but ≤1 μM; and “†††” indicates IC50 is >1 μM but ≤5 μM, “††††” indicates IC50 is >5 μM but ≤10 μM.

Sequence of KRAS G12D (P01116 1-188 isoform P01116-2 G12D): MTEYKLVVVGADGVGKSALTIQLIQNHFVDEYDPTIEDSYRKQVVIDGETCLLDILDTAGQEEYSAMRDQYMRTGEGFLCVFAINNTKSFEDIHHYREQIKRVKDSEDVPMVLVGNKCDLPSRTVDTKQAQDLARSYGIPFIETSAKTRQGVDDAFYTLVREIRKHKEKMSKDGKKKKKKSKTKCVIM

Row | IC50 [nM] | Structure (SMILES)
1 | ≤ 100 | CN(C)C1CN(c2nc(N3C4CCC3CNC4)c3ccc(-c4cc(O)cc5ccccc45)c(F)c3c2C#N)C1 [Example 1, 1-(3,8-diazabicyclo[3.2.1]octan-8-yl)-3-(3-(dimethylamino)azetidin-1-yl)-5-fluoro-6-(3-hydroxynaphthalen-1-yl)isoquinoline-4-carbonitrile]
2 | 100 to 1000 | CN(C)C1CN(c2nc(N3C4CCC3CNC4)c3cc(CCC#N)c(-c4cc(O)cc5ccccc45)c(F)c3c2Cl)C1 [Example 2, 3-(1-(3,8-diazabicyclo[3.2.1]octan-8-yl)-4-chloro-3-(3-(dimethylamino)azetidin-1-yl)-5-fluoro-6-(3-hydroxynaphthalen-1-yl)isoquinolin-7-yl)propanenitrile]
3 | 100 to 1000 | Cc1c(N2CC(N(C)C)C2)nc(N2C3CCC2CNC3)c2cc(CCC#N)c(-c3cc(O)cc4ccccc34)c(F)c12 [Example 3, 3-(1-(3,8-diazabicyclo[3.2.1]octan-8-yl)-3-(3-(dimethylamino)azetidin-1-yl)-5-fluoro-6-(3-hydroxynaphthalen-1-yl)-4-methylisoquinolin-7-yl)propanenitrile]
4 | 5000 to 10000 | CN(C)C1CN(c2nc(N3C4CCC3CNC4)c3cc(CCC#N)c(-c4cc(O)cc5ccccc45)c(F)c3c2-c2ccccc2)C1 [Example 4, 3-(1-(3,8-diazabicyclo[3.2.1]octan-8-yl)-3-(3-(dimethylamino)azetidin-1-yl)-5-fluoro-6-(3-hydroxynaphthalen-1-yl)-4-phenylisoquinolin-7-yl)propanenitrile]
5 | 100 to 1000 | CN(C)C1CN(c2nc(N3C4CCC3CNC4)c3cc(CCC#N)c(-c4cc(O)cc5ccccc45)c(F)c3c2C2CC2)C1 [Example 5, 3-(1-(3,8-diazabicyclo[3.2.1]octan-8-yl)-4-cyclopropyl-3-(3-(dimethylamino)azetidin-1-yl)-5-fluoro-6-(3-hydroxynaphthalen-1-yl)isoquinolin-7-yl)propanenitrile]
6 | 100 to 1000 | CN(C)C1CN(c2nc(N3C4CCC3CNC4)c3cc(CCC#N)c(-c4cc(O)cc5ccccc45)c(F)c3c2C#N)C1 [Example 6, 1-(3,8-diazabicyclo[3.2.1]octan-8-yl)-7-(2-cyanoethyl)-3-(3-(dimethylamino)azetidin-1-yl)-5-fluoro-6-(3-hydroxynaphthalen-1-yl)isoquinoline-4-carbonitrile]
7 | 100 to 1000 | CN1CCC[C@H]1COc1nc(N2C3CCC2CNC3)c2cc(CCC#N)c(-c3cc(O)cc4ccccc34)c(F)c2c1C#N [Example 7, 1-(3,8-diazabicyclo[3.2.1]octan-8-yl)-7-(2-cyanoethyl)-5-fluoro-6-(3-hydroxynaphthalen-1-yl)-3-(((S)-1-methylpyrrolidin-2-yl)methoxy)isoquinoline-4-carbonitrile]
8 | 100 to 1000 | CN1CCC(Oc2nc(N3C4CCC3CNC4)c3cc(CCC#N)c(-c4cc(O)cc5ccccc45)c(F)c3c2C#N)CC1 [Example 8, 1-(3,8-diazabicyclo[3.2.1]octan-8-yl)-7-(2-cyanoethyl)-5-fluoro-6-(3-hydroxynaphthalen-1-yl)-3-((1-methylpiperidin-4-yl)oxy)isoquinoline-4-carbonitrile]
9 | 100 to 1000 | CN(C)Cc1cccc(-c2nc(N3C4CCC3CNC4)c3cc(CCC#N)c(-c4cc(O)cc5ccccc45)c(F)c3c2C#N)c1 [Example 9, 1-(3,8-diazabicyclo[3.2.1]octan-8-yl)-7-(2-cyanoethyl)-3-(3-((dimethylamino)methyl)phenyl)-5-fluoro-6-(3-hydroxynaphthalen-1-yl)isoquinoline-4-carbonitrile]
10 | 100 to 1000 | CN(C)C1CN(c2nc(N3C[C@H]4CC[C@@H]3CN4)c3cc(CCC#N)c(-c4cc(O)cc5ccccc45)c(F)c3c2C#N)C1 [Example 10, 1-((1R,4R)-2,5-diazabicyclo[2.2.2]octan-2-yl)-7-(2-cyanoethyl)-3-(3-(dimethylamino)azetidin-1-yl)-5-fluoro-6-(3-hydroxynaphthalen-1-yl)isoquinoline-4-carbonitrile]
11 | 100 to 1000 | CN(C)C1CN(c2nc(N3C[C@@H](N)C[C@H]3CO)c3cc(CCC#N)c(-c4cc(O)cc5ccccc45)c(F)c3c2C#N)C1 [Example 11, 1-((2S,4S)-4-amino-2-(hydroxymethyl)pyrrolidin-1-yl)-7-(2-cyanoethyl)-3-(3-(dimethylamino)azetidin-1-yl)-5-fluoro-6-(3-hydroxynaphthalen-1-yl)isoquinoline-4-carbonitrile]
12 | ≤ 100 | CN(C)C1CN(c2nc(N3CCC(CC#N)C3)c3cc(CCC#N)c(-c4cc(O)cc5ccccc45)c(F)c3c2C#N)C1 (stereo not shown) [Example 12, 7-(2-cyanoethyl)-1-(3-(cyanomethyl)pyrrolidin-1-yl)-3-(3-(dimethylamino)azetidin-1-yl)-5-fluoro-6-(3-hydroxynaphthalen-1-yl)isoquinoline-4-carbonitrile]
13 | ≤ 100 | CN(C)C1CN(c2nc(N3CC[C@H](N)C3)c3cc(CCC#N)c(-c4cc(O)cc5ccccc45)c(F)c3c2C#N)C1 [Example 13, 1-((S)-3-aminopyrrolidin-1-yl)-7-(2-cyanoethyl)-3-(3-(dimethylamino)azetidin-1-yl)-5-fluoro-6-(3-hydroxynaphthalen-1-yl)isoquinoline-4-carbonitrile]
14 | ≤ 100 | C[C@@H]1C[C@H](N)CN1c1nc(N2CC(N(C)C)C2)c(C#N)c2c(F)c(-c3cc(O)cc4ccccc34)c(CCC#N)cc12 [Example 14, 1-((2R,4S)-4-amino-2-methylpyrrolidin-1-yl)-7-(2-cyanoethyl)-3-(3-(dimethylamino)azetidin-1-yl)-5-fluoro-6-(3-hydroxynaphthalen-1-yl)isoquinoline-4-carbonitrile]
15 | ≤ 100 | N#Cc1c(OC[C@@]23CCCN2C[C@H](F)C3)nc(N2CC3CCC(C2)N3)c2cnc(-c3cc(O)cc4ccccc34)c(F)c12 [Example 15, 1-(3,8-diazabicyclo[3.2.1]octan-3-yl)-5-fluoro-3-(((2R,7aS)-2-fluorotetrahydro-1H-pyrrolizin-7a(5H)-yl)methoxy)-6-(3-hydroxynaphthalen-1-yl)-2,7-naphthyridine-4-carbonitrile]
16 | ≤ 100 | CCc1c(F)ccc2cc(O)cc(-c3ncc4c(N5CC6CCC(C5)N6)nc(N5CC(C)(N(C)C)C5)c(C#N)c4c3F)c12 [Example 16, 1-(3,8-diazabicyclo[3.2.1]octan-3-yl)-3-(3-(dimethylamino)-3-methylazetidin-1-yl)-6-(8-ethyl-7-fluoro-3-hydroxynaphthalen-1-yl)-5-fluoro-2,7-naphthyridine-4-carbonitrile]
